Reference: US7511076B2, “Nitrosation-inducible inhibitors biological macromolecules” (New York University, priority 2000, dated 2009)

Assays:
[1] = test system: Escherichia coil strain BL21 and Bacillus subtilis Strain IS75; experiment: Bactericidal effect on Gram-negative and Gram-positive bacteria; type: cell-based, Escherichia coli; Bacillus subtilis; settings: for Effect of the additive on the bactericidal effect of ANSA (CFU): NO trap or water solution of NO added with ANSA
Method: (§1) ANSA Derivatives as a New Class of Antibiotics and Antineoplastic Drugs. ANSA derivatives (shown in FIG. 9) were tested for their cytotoxic capabilities using wild type strains of Gram-negative and Gram-positive bacterial (Escherichia coil strain BL21 and Bacillus subtilis Strain IS75).
In order to be nitrosated, peptidyl-ANSA must undergo cleavage of the C-terminal amino acid residue to relieve the R3 NH2 group. Taking advantage of the chromogenic nature of ANSA compounds, it was possible to determine whether the peptidyl-ANSA were transported in the cell and processed by proteolysis.

[2] = molecular target: T1, RNA polymerase from E. coli (RNAP) (Escherichia coli, UniProt P0A7Z4+P0A8T7+P0A8V2); experiment: *NO-dependent RNAP inactivation assay (in vitro transcription); type: biochemical; settings: for Effect on transcription by RNAP, agent alone: agent added alone (*NO low dose without ANSA; ANSA without *NO); for *NO-dependent inactivation of RNAP (transcription) in the presence of ANSA: RNAP + ANSA treated with low dose of *NO
T1 construct: made in house
T1 sequence (P0A8V2 whole entry): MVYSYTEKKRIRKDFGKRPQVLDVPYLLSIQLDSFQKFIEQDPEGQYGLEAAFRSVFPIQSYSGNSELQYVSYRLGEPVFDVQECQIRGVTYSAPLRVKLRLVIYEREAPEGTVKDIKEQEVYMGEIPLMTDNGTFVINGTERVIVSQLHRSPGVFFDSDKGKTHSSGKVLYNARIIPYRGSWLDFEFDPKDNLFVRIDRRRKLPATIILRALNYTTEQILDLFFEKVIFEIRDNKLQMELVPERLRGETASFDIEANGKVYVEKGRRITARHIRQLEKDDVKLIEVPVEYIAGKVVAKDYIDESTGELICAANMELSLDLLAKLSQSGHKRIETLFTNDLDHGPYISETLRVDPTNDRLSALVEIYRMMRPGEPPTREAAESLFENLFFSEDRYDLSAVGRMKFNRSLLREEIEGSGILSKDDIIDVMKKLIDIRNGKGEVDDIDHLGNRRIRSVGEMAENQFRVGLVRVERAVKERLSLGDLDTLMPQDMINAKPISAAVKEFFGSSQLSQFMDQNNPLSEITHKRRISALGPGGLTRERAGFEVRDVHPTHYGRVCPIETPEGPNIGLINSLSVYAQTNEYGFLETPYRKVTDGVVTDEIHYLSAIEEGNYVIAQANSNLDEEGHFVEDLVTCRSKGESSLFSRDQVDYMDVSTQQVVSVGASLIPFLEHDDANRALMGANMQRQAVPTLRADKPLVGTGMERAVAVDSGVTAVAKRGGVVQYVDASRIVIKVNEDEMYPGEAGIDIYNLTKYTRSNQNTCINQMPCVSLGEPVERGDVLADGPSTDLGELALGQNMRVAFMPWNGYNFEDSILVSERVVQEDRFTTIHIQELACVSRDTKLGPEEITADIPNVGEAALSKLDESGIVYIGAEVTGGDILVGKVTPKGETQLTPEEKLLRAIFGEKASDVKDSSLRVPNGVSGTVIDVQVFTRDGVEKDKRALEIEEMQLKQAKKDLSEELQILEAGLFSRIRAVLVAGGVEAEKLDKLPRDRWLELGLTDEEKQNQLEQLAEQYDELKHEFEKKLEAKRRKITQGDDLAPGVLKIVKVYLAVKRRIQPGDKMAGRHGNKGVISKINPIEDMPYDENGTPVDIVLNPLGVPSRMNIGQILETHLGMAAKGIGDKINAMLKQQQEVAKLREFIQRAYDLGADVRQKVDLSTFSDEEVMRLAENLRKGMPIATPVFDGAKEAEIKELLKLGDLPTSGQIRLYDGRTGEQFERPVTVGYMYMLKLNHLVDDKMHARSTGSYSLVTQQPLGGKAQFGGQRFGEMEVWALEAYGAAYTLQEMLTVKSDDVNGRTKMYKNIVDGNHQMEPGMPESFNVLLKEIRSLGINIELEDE
T1 sequence (P0A8T7 whole entry): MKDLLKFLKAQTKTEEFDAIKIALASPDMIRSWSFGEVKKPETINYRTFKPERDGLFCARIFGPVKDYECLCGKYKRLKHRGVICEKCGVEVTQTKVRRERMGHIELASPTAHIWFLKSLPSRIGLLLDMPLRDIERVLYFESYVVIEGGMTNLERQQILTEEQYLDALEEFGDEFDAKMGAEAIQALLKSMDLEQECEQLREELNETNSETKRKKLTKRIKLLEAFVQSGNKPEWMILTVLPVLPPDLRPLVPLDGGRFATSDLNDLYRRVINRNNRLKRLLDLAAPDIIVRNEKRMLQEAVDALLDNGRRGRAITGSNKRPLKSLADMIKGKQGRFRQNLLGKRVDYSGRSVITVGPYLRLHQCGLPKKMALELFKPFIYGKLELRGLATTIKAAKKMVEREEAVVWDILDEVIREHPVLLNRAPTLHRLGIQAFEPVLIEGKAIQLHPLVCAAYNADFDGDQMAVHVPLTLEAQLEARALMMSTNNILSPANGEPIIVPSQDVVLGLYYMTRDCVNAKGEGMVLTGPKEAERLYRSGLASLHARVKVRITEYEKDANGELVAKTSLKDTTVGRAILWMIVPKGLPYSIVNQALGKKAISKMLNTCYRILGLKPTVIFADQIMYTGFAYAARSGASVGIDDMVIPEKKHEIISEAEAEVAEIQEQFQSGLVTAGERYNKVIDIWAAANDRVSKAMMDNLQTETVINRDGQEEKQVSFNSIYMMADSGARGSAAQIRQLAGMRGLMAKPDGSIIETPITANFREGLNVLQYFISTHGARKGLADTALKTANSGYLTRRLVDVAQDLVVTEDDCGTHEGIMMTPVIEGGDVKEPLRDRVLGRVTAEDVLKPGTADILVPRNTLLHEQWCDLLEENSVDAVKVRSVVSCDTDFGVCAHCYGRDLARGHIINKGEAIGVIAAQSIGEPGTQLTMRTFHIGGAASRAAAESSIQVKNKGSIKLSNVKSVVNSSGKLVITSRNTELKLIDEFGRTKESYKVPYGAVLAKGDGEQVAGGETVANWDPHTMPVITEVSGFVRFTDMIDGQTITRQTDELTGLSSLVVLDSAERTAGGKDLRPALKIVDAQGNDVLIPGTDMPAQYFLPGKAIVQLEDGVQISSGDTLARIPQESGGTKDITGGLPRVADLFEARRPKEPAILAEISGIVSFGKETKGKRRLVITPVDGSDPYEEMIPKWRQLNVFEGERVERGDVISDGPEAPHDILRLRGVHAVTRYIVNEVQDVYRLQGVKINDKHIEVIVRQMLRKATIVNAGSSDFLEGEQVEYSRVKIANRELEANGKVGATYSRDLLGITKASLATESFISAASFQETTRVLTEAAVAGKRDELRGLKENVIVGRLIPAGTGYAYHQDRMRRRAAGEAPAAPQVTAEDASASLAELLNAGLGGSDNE
T1 sequence (P0A7Z4 whole entry): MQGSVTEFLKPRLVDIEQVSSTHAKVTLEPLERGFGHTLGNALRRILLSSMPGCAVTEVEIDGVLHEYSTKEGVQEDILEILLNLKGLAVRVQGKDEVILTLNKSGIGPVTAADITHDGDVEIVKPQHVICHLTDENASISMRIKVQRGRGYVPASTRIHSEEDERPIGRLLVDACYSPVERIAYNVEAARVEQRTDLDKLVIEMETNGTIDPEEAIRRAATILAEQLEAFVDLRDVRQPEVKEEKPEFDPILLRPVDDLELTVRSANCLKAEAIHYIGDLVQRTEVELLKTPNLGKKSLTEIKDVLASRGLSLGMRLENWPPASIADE
T1 sequence (P0A800 2-91 partner limits assumed): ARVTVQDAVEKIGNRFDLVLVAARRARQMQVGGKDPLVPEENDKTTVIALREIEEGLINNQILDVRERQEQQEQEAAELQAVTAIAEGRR
T1 sequence (P00579 whole entry partner): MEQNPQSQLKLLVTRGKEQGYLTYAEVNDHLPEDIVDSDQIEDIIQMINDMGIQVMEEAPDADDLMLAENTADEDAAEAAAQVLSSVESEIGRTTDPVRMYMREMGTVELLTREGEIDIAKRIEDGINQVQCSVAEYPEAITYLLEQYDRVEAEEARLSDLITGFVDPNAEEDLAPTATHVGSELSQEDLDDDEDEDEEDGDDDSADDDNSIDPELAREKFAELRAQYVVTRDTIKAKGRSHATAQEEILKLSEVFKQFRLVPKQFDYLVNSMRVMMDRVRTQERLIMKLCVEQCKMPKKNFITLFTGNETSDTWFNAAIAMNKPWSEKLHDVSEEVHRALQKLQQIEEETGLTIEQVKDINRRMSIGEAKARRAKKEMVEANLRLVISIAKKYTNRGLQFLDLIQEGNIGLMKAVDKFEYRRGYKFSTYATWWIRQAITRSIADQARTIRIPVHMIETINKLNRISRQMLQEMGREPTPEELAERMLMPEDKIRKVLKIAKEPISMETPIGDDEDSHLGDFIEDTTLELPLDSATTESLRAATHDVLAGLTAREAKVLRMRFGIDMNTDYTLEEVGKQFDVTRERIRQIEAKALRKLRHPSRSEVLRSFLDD
Method: Transcription reactions (total volume=20 μl) were performed in a buffer containing 20 mM Tris HCL, pH 7.5, 10 mM MgCl2, 50 mM KCl, 8 μM ATP, GTP, UTP, 1.8 μM CTP, and 0,15 μM [α-^32P] CTP (3000 Ci/mmol) for 5 minutes at 37° C. RNAP was purified as described (Nudler et al, 1996). The DNA template containing the A1 promoter of phage T7 was obtained by polymerase chain reaction from the plasmid pENtR2 (Nudler et al, 1996).
Hydrophobic Amines (ANSA) as *NO-Dependent Enzyme Inhibitors. To investigate whether this mechanism might be functioning in proteins other than BSA, the effect of nitrosation on a completely distinct protein—RNA polymerase from E. coli (RNAP)—was examined. The experiments were done by exposing RNAP to a low dose of *NO, and then adding the DNA template and ribonucleotide substrates to initiate the transcription reaction. For a control, a solution of NO2^− for the *NO was substituted by oxidizing *NO prior to the experiment. […] The *NO-dependent inhibition of RNAP was complex. […] Shorter transcripts represent paused RNAP molecules resulting from the limited amount of CTP in the reaction. […] The complex inhibitory effect of nitrosation on RNAP is not surprising since many potential nitrosation targets are distributed in structurally and functionally distinct regions of the enzyme (Zhang et al, 1999).
To determine whether this process could also occur with RNAP, the mixture of RNAP+ANSA II was treated with *NO (FIG. 3, lane 4).
To further test the autocatalytic mechanism of enzyme inactivation and the key role of nitrosation-azocoupling in this process additional ANSA was synthesized and were tested in the *NO-dependent RNAP inactivation assay (FIG. 3). […] ANSA VI and ANSA VII, with methyl and peptidyl substitutions in the NH2 group, were incapable of forming aryldiazonium cation upon nitrosation. […] This experiment raises the possibility that hydrophobic amines could be used as efficient tools for the *NO-dependent inactivation of enzymes.

[3] = test system: Escherichia coil strain BL21; experiment: Bactericidal effect of ANSA derivatives on E. coli cultures (CFU count); type: cell-based, Escherichia coli; settings: 20 μg/ml ANSA, 30 minutes, room temperature, start 10^7 CFU ml^−1, *NO and/or PTIO 20 μM where indicated; for CFU, E. coli, rich media: LB broth; for CFU, E. coli, minimal media: M9 minimal media
Method: as §1

[4] = test system: Bacillus subtilis Strain IS75; experiment: Bactericidal effect of ANSA derivatives on B. subtilis cultures (CFU count); type: cell-based; settings: 20 μg/ml ANSA, 30 minutes, room temperature, start 10^7 CFU ml^−1, *NO and/or PTIO 20 μM where indicated; for CFU, B. subtilis, rich media: LB broth; for CFU, B. subtilis, minimal media: Spizizen's minimal media
Method: as §1

BSA = molecular target: T2, BSA (Bos taurus, UniProt P02769); experiment: Complex formation and nitrosation of ANSA in the presence of BSA (gel filtration, fluorescence, TLC); type: binding; settings: for Nitrosation of ANSA in the ANSA I+ANSA II+BSA mixture: low dose of *NO (5 molar excess), aerobic
T2 construct: purchased Sigma
T2 sequence (P02769 25-607): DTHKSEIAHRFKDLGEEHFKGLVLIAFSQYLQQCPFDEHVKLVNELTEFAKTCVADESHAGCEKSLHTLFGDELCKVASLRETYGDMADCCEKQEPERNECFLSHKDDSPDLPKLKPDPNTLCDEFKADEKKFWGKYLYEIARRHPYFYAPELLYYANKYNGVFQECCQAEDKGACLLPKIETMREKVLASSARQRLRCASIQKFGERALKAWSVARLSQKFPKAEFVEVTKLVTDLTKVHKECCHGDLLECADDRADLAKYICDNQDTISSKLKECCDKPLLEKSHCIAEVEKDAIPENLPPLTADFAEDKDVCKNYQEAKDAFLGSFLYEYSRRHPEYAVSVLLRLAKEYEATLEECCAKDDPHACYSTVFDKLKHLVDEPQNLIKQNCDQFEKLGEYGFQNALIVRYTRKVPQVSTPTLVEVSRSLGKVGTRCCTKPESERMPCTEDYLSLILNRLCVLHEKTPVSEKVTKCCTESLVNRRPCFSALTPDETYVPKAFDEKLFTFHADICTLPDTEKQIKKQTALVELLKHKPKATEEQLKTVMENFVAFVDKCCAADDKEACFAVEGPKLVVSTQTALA
Method: ANSA were synthesized from 5-nitronaphthalenesulphoacids and 5-aminonaphthalenesulphoacids (Reahim). TLC of ANSA and their derivatives was carried out on Silica gel 60 plates (Merck) in the hexane/ethyl acetate system. Gel filtration was performed using the Sephadex G25M size-exclusion column (Pharmacia). Fluorescence of ANSA was observed and measured under 365 nm UV light using BioRad Fluor-S MultiImager system.
The present inventors first synthesized two ANSA with opposite hydrophobic properties (FIG. 12B). In the low-hydrophobic ANSA molecule (ANSA I), the R1 group is —CH3 and the R2 group is —H. The highly hydrophobic ANSA (ANSA II) has C3H7 for both R1 and RExperiments were done by mixing an aqueous solution of ANSA with the test protein, and then initiating the nitrosation reaction by the aerobic addition of an aqueous solution of *NO. Two initial concentrations of *NO were used at 25 molar excess over ANSA (high dose) and a 5 molar excess (low dose).

[5] = test system: prostatic carcinoma cell lines DU-145 and PC-3 and normal human fibroblasts (WI-38); experiment: MTS cytotoxicity assay (CellTiter 96); settings: for Cytotoxic effect / cell survival (MTS, in words): 0.1-100 μM, 72 h, presence or absence of *NO; for Effect of the additive on ANSA cytotoxicity: NO trap or general NOS inhibitor added
Method: A second preliminary study used two human hormone-independent prostatic carcinoma cell lines DU-145 and PC-3 (ATCC, Virginia) and normal human fibroblasts (WI-38). The MTS cytotoxicity assay (“CellTiter 96”, Promega) was used to measure the cytotoxicity of several ANSA compounds in the presence or absence of *NO. All compounds tested in vitro were dissolved in DMSO ([…]) and subsequently diluted in the culture medium before treatment of the cultured cells. Tested cells were plated in 96-well plates at a density of 4×10^3 cells/well/200 μL of the proper culture medium and treated with the compounds at concentrations of 0.1-100 μM. In parallel, the cells were treated with 1% of DMSO as control. MTS assay was performed 72 h later according to instructions provided by the manufacturer (Promega). This assay is based on the cellular conversion of the tetrazolium salt, MTS[3-(4,5-dimethylthiazol-2-yl)-5-(3-carboxymethoxyphenyl)-2-(4-sulfophenyl)-2H-tetrazolium, inner salt], into a formazan that is soluble in cell culture medium and is measured at 490 nm directly in 96-well assay plates without additional processing. Absorbency is directly proportional to the number of living cells in culture.
In order to be nitrosated, peptidyl-ANSA must undergo cleavage of the C-terminal amino acid residue to relieve the R3 NH2 group.

Row | SMILES | CFU, E. coli, rich media [3] | CFU, E. coli, minimal media [3] | CFU, B. subtilis, rich media [4] | CFU, B. subtilis, minimal media [4] | *NO-dependent inactivation of RNAP (transcription) in the presence of ANSA [2] | other results
1 | [N]=O [*NO, Nitric oxide, reference compound] | ≈10^6 CFU ml^−1 | ≈10^6 CFU ml^−1 | ≈10^6 CFU ml^−1 | ≈10^6 CFU ml^−1 | – | Effect of the additive on the bactericidal effect of ANSA (CFU) [1]: restored the bactericidal effect; Effect on transcription by RNAP, agent alone [2]: partially inhibited transcription
2 | CN(C)S(=O)(=O)c1cccc2c(N)cccc12 [ANSA III] | – | – | – | – | partial negative effect | –
3 | CCCN(CCC)S(=O)(=O)c1cccc2c(N)cccc12 [ANSA II] | – | – | – | – | completely inactivated RNAP | Formation of a stable complex with BSA (BSA; gel filtration analysis): able to form a stable complex with BSA; Nitrosation of ANSA in the ANSA I+ANSA II+BSA mixture (BSA): nitrosated; Effect on transcription by RNAP, agent alone [2]: did not affect transcription
4 | Nc1cccc2c(S(=O)(=O)N3CCOCC3)cccc12 [ANSA IV] | – | – | – | – | partial negative effect | –
5 | CNS(=O)(=O)c1cccc2c(N)cccc12 [ANSA I] | 10^6-10^7 CFU ml^−1 | ≈10^7 CFU ml^−1 | ≈10^7 CFU ml^−1 | ≈10^7 CFU ml^−1 | had no effect on transcription | Nitrosation of ANSA in the ANSA I+ANSA II+BSA mixture (BSA): intact; Cytotoxic effect / cell survival (MTS, in words) [5]: not
6 | CCCCCNS(=O)(=O)c1cccc2c(NC)cccc12 [ANSA VIII] | ≈10^7 CFU ml^−1 | ≈10^7 CFU ml^−1 | ≈10^7 CFU ml^−1 | ≈10^7 CFU ml^−1 | – | Bactericidal effect / cell survival (in words) [1]: had no effect on cell survival; Cytotoxic effect / cell survival (MTS, in words) [5]: had no effect on cell survival
7 | CCCCCNS(=O)(=O)c1cccc2c(NC(=O)C(CCCNC(=N)N)NC(=O)C(CCCNC(=N)N)NC(=O)CNC(=O)CN)cccc12 (stereo not drawn) [ANSA VII] | 0 CFU ml^−1 | – | – | – | unable to enhance inactivation of RNAP | Bactericidal effect / cell survival (in words) [1]: strongest bactericidal effect; Cytotoxic effect / cell survival (MTS, in words) [5]: strong cytotoxic effect
8 | CNc1cccc2c(S(=O)(=O)N(C)C)cccc12 [ANSA VI] | – | – | – | – | unable to enhance inactivation of RNAP | –
9 | CCCCCNS(=O)(=O)c1cccc2c(N)cccc12 [ANSA V] | 0-20 CFU ml^−1 | ≈10^3 CFU ml^−1 | 10^2-10^3 CFU ml^−1 | 10^2 CFU ml^−1 | completely inactivated RNAP | –
10 | COC(=O)[C@@H](N)CCCNC(=N)N[N+](=O)[O-] [L-NAME, reference compound] | – | – | – | – | – | Effect of the additive on ANSA cytotoxicity [5]: decreased the cytotoxicity
11 | O=NO [NO2^−, nitrite, reference compound] | – | – | – | – | – | Effect on transcription by RNAP, agent alone [2]: had no effect
12 | CC1(C)N([O])C(c2ccccc2)=[N+]([O-])C1(C)C [PTIO, 2-phenyl-4,4,5,5-tetramethylimidazoline-1-oxyl-3-oxide, reference compound] | – | – | – | – | – | Effect of the additive on the bactericidal effect of ANSA (CFU) [1]: almost completely abolished the inhibitory effect; Effect of the additive on ANSA cytotoxicity [5]: decreased the inhibitory effect
